From patent US20100256214A1, “EPH RECEPTOR LIGANDS AND METHODS OF USE” (Burnham Institute for Medical Research, priority 2009, published 2010)

Target: EphA2 (Homo sapiens, UniProt P29317)
Test: EphA2 tyrosine phosphorylation in PC3 cells
Type: cell-based
Set-up: endogenous in cells; host or cells: PC3
Procedure: FIGS. 9A-9G. A. PC3 cells pretreated for 15 min with the indicated concentrations of compound 1 or compound 2 were stimulated with 0.5 μg/mL ephrin-A1 Fc (+) or Fc as a control (−) for 20 min in the continued presence of the compounds. EphA2 immunoprecipitates were probed with anti-phosphotyrosine antibody (PTyr) and reprobed for EphA2. C indicates immunoprecipitations performed with control antibodies. B. Histogram showing the levels of EphA2 phosphorylation normalized to the amount of immunoprecipitated EphA2. Error bars indicate standard error from 3 experiments. Receptor phosphorylation levels were compared with those in the ephrin-stimulated cells by one-way ANOVA and Dunnett's post test. *P<0.05 and *P<0.01. C. PC3 cells stimulated with compound 1 as in (A) were stained with rhodamine-phalloidin to label actin filaments and DAPI to label nuclei. DMSO was used as a control (0 μM). […] Cells having rounded shape and area less than 20% of the mean value obtained for the Fc stimulated cells were scored as retracting. […]
Measurement of Receptor Tyrosine Phosphorylation in Cells—HT22 neuronal cells, which endogenously express EphA4, are derived from immortalized mouse hippocampal neurons (Li et al. (1997) Neuron 19(2), 453-463). […] The protein concentration was calculated using the BCA protein assay kit (Pierce Biotecnology, Rockford, Ill.). […]

Sequence of EphA2 (P29317 24-976): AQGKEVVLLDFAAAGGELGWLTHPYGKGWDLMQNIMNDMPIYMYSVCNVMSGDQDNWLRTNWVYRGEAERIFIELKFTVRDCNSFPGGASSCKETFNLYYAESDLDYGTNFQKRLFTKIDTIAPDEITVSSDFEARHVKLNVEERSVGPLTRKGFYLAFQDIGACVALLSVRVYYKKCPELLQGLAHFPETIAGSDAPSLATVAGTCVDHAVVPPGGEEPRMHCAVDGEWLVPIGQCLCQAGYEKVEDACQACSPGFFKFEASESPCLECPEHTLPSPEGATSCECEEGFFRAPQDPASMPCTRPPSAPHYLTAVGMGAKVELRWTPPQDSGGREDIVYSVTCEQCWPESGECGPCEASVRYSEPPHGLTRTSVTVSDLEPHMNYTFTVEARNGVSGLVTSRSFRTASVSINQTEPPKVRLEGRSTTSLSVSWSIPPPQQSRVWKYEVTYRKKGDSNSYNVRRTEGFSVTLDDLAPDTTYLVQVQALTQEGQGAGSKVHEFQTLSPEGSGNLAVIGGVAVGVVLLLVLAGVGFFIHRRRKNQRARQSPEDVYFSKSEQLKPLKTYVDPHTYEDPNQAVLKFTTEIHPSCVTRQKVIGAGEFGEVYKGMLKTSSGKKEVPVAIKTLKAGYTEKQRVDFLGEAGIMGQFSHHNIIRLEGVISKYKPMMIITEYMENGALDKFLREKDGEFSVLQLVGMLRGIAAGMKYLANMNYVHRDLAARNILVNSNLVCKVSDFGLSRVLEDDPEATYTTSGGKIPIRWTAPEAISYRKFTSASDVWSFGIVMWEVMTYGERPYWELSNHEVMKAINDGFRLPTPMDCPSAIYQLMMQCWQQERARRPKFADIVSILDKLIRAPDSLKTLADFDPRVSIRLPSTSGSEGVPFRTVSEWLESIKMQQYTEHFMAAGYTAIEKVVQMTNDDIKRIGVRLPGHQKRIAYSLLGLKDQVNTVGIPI

SMILES	EphA2 activation following stimulation with ephrin-A1 Fc
Cc1ccc(C)n1-c1ccc(C(=O)O)c(O)c1 [compound 1, 4-(2,5-dimethyl-pyrrol-1-yl)-2-hydroxy-benzoic acid]	blocked
Cc1ccc(C)n1-c1ccc(O)c(C(=O)O)c1 [compound 2, 5-(2,5 dimethyl-pyrrol-1-yl)-2-hydroxy-benzoic acid]	blocked
